Laboratory results from publication PMC5699943 (Biotechnology and bioengineering, 2017).

Key:
Test in all cases: formaldehyde-responsive FrmR GFP reporter in E. coli cells
Format in all cases: cell-based
Details in all cases: whole cells, 0-500 mM methanol, 2 h, 37°C, NAD-dependent
[1] = biological target: T1, mdh from Geobacillus stearothermophilus (Geobacillus stearothermophilus, UniProt P42327)
T1 sequence (P42327 1-339): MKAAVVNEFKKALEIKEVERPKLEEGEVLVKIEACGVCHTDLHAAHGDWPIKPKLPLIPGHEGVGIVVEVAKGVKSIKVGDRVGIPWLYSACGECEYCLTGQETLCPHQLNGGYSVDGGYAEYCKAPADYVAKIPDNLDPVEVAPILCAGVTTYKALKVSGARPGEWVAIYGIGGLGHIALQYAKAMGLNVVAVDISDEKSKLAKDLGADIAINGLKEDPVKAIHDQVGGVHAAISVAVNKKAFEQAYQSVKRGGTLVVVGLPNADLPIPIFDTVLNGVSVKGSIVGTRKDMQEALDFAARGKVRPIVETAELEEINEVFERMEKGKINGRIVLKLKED

AdhA from C. glutamicum = biological target: T2, AdhA from C. glutamicum (Corynebacterium glutamicum, UniProt Q8NLX9)
T2 sequence (Q8NLX9 1-345): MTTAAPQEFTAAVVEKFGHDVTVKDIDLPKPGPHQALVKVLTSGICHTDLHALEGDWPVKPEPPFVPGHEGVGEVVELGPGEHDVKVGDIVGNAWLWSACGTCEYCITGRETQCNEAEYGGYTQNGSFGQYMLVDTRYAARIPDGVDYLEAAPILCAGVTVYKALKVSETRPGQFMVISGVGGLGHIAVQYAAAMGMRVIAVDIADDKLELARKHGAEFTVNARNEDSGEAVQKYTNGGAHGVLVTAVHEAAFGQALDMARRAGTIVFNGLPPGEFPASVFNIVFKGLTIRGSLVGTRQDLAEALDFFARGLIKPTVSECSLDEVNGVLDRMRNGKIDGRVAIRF

[2] = biological target: T3, mdh2 from Cupriavidus necator (Cupriavidus necator, UniProt F8GNE5)
T3 sequence (F8GNE5 1-390): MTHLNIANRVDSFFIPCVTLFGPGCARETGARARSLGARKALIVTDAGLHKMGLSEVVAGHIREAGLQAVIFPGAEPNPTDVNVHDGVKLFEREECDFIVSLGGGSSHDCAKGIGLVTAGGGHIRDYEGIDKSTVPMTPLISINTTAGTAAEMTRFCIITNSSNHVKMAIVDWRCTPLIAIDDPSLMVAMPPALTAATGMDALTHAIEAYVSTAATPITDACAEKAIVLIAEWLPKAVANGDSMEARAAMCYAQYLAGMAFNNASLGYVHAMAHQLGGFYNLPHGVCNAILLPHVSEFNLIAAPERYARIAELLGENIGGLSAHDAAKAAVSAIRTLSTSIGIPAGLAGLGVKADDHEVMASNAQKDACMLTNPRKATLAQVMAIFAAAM

CO [methanol]
formaldehyde-responsive FrmR GFP reporter in E. coli cells [1]: After two hours, signal was detected for all variants except Mdh1 | formaldehyde-responsive FrmR GFP reporter in E. coli cells (AdhA from C. glutamicum): After two hours, signal was detected for all variants except Mdh1 | formaldehyde-responsive FrmR GFP reporter in E. coli cells [2]: After two hours, signal was detected for all variants except Mdh1
